Tests used:
[1] = test system: HS-SULTAN (multiple myeloma); experiment: MTT cytotoxicity assay, HS-SULTAN; format: cell-based; details: Homo sapiens
[2] = test system: NALM-6 human B-lineage acute lymphoblastic leukemia cells; experiment: MTT cytotoxicity assay, NALM-6; format: cell-based; details: NALM-6 (leukemia, ALL), 24-36 hours, read-out: IC50 [MTT]
Experimental: (§1) The cytotoxicity assay of synthetic Phorboxazole A and various derivative compounds against human tumor cells was performed using the MTT (3-[4,5-dimethylthiazol-2-yl]-2,5-diphenyl tetrazolium bromide) assay (Boehringer Mannheim Corp., Indianapolis, Ind.). Briefly, exponentially growing brain tumor cells were seeded into a 96-well plate at a density of 2.5×10^4 cells/well and incubated for 36 hours at 37° C. prior to drug exposure. On the day of treatment, culture medium was carefully aspirated from the wells and replaced with fresh medium containing the various phorboxazole A derivative compounds as well as the tyrosine kinase inhibitory isoflavone genistein (GEN) at concentrations ranging from 0.1 to 250 μM. Triplicate wells were used for each treatment.
Human glioblastoma cells U373 (brain cancer), human B-lineage acute lymphoblastic leukemia cells NALM-6, and human breast cancer cells BT-20 were obtained from American Type Culture Collection (Rockville, Md.) and maintained as a continuous cell line in Dulbecco's modified Eagles's medium supplemented with 10% fetal bovine serum and antibiotics.
The cells were incubated with the various compounds for 24-36 hours at 37° C. in a humidified 5% CO2 atmosphere. To each well, 10 μl of MTT (0.5 mg/ml final concentration) was added and the plates were incubated at 37° C. for 4 hours to allow MTT to form formazan crystals by reacting with metabolically active cells. The fonnazan crystals were solubilized overnight at 37° C. in a solution containing 10% SDS in 0.01 M HCl. The absorbance of each well was measured in a microplate reader (Labsystems) at 540 nm and a reference wavelength of 690 nm. To translate the OD540 values into the number of live cells in each well, the OD540 values were compared to those on standard OD540-versus-cell number curves generated for each cell line. The percent survival was calculated using the formula: [formula]
The IC50 values were calculated by non-linear regression analysis.

[3] = test system: BT-20 human breast cancer cells; experiment: Clonogenic assay, BT-20; format: cell-based; details: 7 days
Experimental: The growth-inhibiting activity of the synthetic Phorboxazole A and the synthesized derivatives was tested in clonogenic assays. Cancer cells were treated with 1 nM, 10 nM, and 100 nM doses of synthetic Phorboxazole A or derivatives of phorboxazole A. Treated cells included U373 human glioblastoma cells, NALM-6, human B-lineage acute lymphoblastic leukemia cells, and BT-20 human breast cancer cells. The cancer cells were resuspended in clonogenic medium consisting of alpha-MEM supplemented with 0.9% methylcellulose, 30% fetal bovine serum, and 50 μM 2-mercaptoethanol. Cells were plated in duplicate Petri dishes at 100,000 cells/mL/dish and cultured in a humidified 5% CO2 incubator for 7 days. Cancer cell colonies were enumerated on a grid using an inverted phase microscope of high optical resolution. Results were expressed as % inhibition of clonogenic cells at a particular concentration of the test agent using the formula:
% Inhibition=(1−Mean # of colonies [Test]/Mean # of colonies [Control]×100.

U373 glioblastoma cells = experiment: In vitro adhesion assay to ECM proteins, U373; format: cell-based, human; details: laminin-, fibronectin-, and collagen-coated plates, 0.1 μM to 1 μM for 24 hours
Experimental: Human brain tumor cell lines U-373 MG and breast cancer cell lines BT-20 and MDA-MB-231 were obtained from American Type Culture Collection (ATCC, Rockville, Md.) and maintained in liquid culture using DMEM supplemented with 10% fetal bovine serum and antibiotics. Fibroblast conditioned medium was used as a source of chemoattractant in vitro invasion assays. Conditioned medium was prepared as described in the literature (Albini et.al., 1987, Cancer Res., 47:3239-3245).
In vitro adhesion assays were performed to (a) study the baseline adhesive properties of various breast cancer and glioblastoma cell lines and (b) evaluate the effects of phorboxazole A derivatives on the adhesive properties of breast cancer and glioblastoma cells. The plates for the adhesion assays were precoated with the extracellular matrix proteins laminin, fibronectin, or type IV collagen (each at a final concentration of 1 μg/ml in PBS) overnight at 4° C. and dried. On the day of the experiment, the wells were rehydrated and blocked with 10% bovine serum albumin in PBS for 1 hour at room temperature and used for the adhesion assays, as described below.
The effects of synthetic phorboxazole A and specific derivatives on adhesion of breast cancer and glioblastoma cells was studied. Exponentially growing cells in DMEM were incubated with phorboxazole compounds or genistein as a control at concentrations ranging from 0.1 μM to 1 μM for 24 hours in a humidified 5% CO2 atmosphere. DMSO (0.1%) was included as a vehicle control. After treatment, cells were detached from the flasks with 0.05% trypsin (Life Technologies) resuspended in DMEM, incubated at 37° C. for 2 hours to allow them to recover from the trypsinization stress and examined for their ability to adhere to plates precoated with ECM proteins.
In adhesion assays, cells were centrifuged, washed twice with serum-free DMEM, counted and resuspended in serum-free DMEM to a final concentration of 2.5×10^5 cells/ml. […] The adherent fraction was quantitated using MTT (3-[4,5-dimethylthiazol-2-yl]-2,5-diphenyltetrazolium bromide) assays. […] The absorbance of each well was measured in a microplate reader (Labsystems) at 540 nm and a reference wavelength of 690 nm.
To translate the OD540 values into the number of cells in each well, the OD540 values were compared to those on standard OD540-versus-cell number curves generated for each cell line. The adherent fractions of cells treated with phorboxazole A derivatives were compared to those of DMSO-treated control cells and the percent inhibition of adhesion was determined using the formula: [formula]
Each treatment condition was evaluated in duplicate in 3 independent experiments. The IC50 values were calculated by non-linear regression analysis. […]

DU-145 (prostate cancer) = experiment: MTT cytotoxicity assay, DU-145; format: cell-based; details: Homo sapiens
Experimental: as §1
The cells were incubated with the various compounds for 24-36 hours at 37° C. in a humidified 5% CO2 atmosphere. To each well, 10 μl of MTT (0.5 mg/ml final concentration) was added and the plates were incubated at 37° C. for 4 hours to allow MTT to form formazan crystals by reacting with metabolically active cells. […] The absorbance of each well was measured in a microplate reader (Labsystems) at 540 nm and a reference wavelength of 690 nm. […] The percent survival was calculated using the formula: [formula]
The IC50 values were calculated by non-linear regression analysis. […]

SMILES: C=C1C[C@@H]2C[C@@H]3C[C@@H](O)C[C@@H](O3)c3coc(n3)/C=C/C[C@H]3O[C@@H](/C(C)=C/c4coc(C[C@]5(O)C[C@H](OC)C[C@H]([C@H](O)/C=C(C)/C=C/[C@@H](C/C=C/Br)OC)O5)n4)[C@H](C)[C@@H](OC(=O)/C=C\C[C@@H](C1)O2)[C@H]3C [Compound 1, Phorboxazole A]
- IC50 [1]: 29.8 nM
- IC50 [2]: 1.7 nM
- Mean Number Colonies/10^4 cells ([3]; 1 nM): 1070
- Mean Number Colonies/10^4 cells ([3]; 10 nM): 0
- Mean Number Colonies/10^4 cells ([3]; 100 nM): 0
- inhibition at 0.001 µM ([3]; Homo sapiens, 168 h, 1 nM, read-out: Inhibition of clonogenic growth): 29.8%
- inhibition at 0.01 µM ([3]; Homo sapiens, 168 h, 10 nM, read-out: Inhibition of clonogenic growth): > 99.9%
- inhibition at 0.1 µM ([3]; Homo sapiens, 168 h, 100 nM, read-out: Inhibition of clonogenic growth): > 99.9%
- Inhibition of cell adhesion (U373 glioblastoma cells): active
- IC50 (DU-145 (prostate cancer)): 15 nM

Reference: patent US6797721B2, “Phorboxazole derivatives for treating cancer” (Parker Hughes Institute, priority 1999, dated 2004)
